The structures appear in SMILES notation. “And” between values parts separate entries of the source, which are not always exact repeats. Identical values can stand only once. “Also recorded” adds a separate entry of the source.

The values below come from patent publication US20060100168A1, “Method of treating cancer using adenosine and its analogs” (The Trustee of Boston University, priority 2002, published 2006).

Experiment [1] concerns primary rat bone marrow cells. As to the kind of experiment: Thymidine incorporation assay. It counts as cell-based. The settings on record: 24 hours, IB-MECA at 100 μM. As to the method:
(§1) Thymidine Incorporation Assay. Thymidine incorporation assays were performed as described (Zhang, Y., Wang, Z., and Ravid, K. The cell cycle in polyploid megakaryocytes is associated with reduced activity of cyclin B1-dependent cdc2 kinase. J Biol Chem, 271: 4266-4272, 1996) with modifications. Rat bone marrow cells were cultured in 25 cm^2 flasks at a concentration of 20×10^6 cells per 2 ml. After drug treatment for 24 hours, cells were incubated with ^3H-thymidine at a final concentration of 3 μCi/ml for 8 hours. For MCF-7 cells, cells were cultured in 6-well plates and incubated with ^3H-thymidine for 2 hours after drug treatment. Cells were divided into two portions, sixty percent of which were processed as described (Id.) to obtain tritium counts. The rest of the cells were lysed with Western blotting lysis buffer and protein concentrations were determined by Bio-Rad protein assay reagent (Bio-Rad, Hercules, Calif.). Tritium counts were normalized with corresponding protein concentrations to account for cell number variations.
On the technique in general: Dividing cells build labelled thymidine or BrdU into new DNA.

Experiment [2] relates to ERE promoter activity (transcriptional activity of endogenous ERα). As to the kind of experiment: Reporter gene assay pERE-Tk-Luc in MCF-7 cells. It counts as cell-based, human. The settings on record: MCF-7 transfected with pERE-Tk-Luc; 12 hours. As to the method:
Transfections and Reporter Gene Assay: Transient transfection was performed using FuGene6 (Roche, Indianapolis, Ind.) transfection reagent according to manufacturer's protocol. Circular reporter plasmid pERE-Tk-Luc at 10 μg and 10 μg of pCMV-β-Gal (as a measure of efficiency of trasnfection) were transfected with 50 μl of FuGene6. Cells were split into 6 well plates 12 hours after transfection, and incubated overnight in fresh medium. […] Luciferase and β-galactosidase activities were measured as described before (43, 44).
(In general: A reporter such as luciferase makes a cellular process visible.)

In experiment [3] the test system is MCF-7 cells. Put plainly: Anchorage-dependent growth assay (viable cell count, Trypan Blue). It counts as cell-based, human. The settings on record: MCF-7. The procedure: (§2) Anchorage-dependent growth assay: Cells were plated into 6-well plates and grown overnight before treatments. The seeding concentration of MCF-7 cells was 2×10^5/well, which was determined during preliminary experiments as not allowing the cells to reach confluency within 3 days. Cells were treated either with vehicle or ligands, as indicated. Cells were detached by incubation with trypsin (Invitrogen, Carlsbad, Calif.) and counted with a hemacytometer before or after treatment.

In a further experiment the test system is Akt (Ser 473). Put plainly: Akt phosphorylation in MCF-7 cells. It counts as cell-based, human. The following applies: not shown.
Experiment [4] deals with MCF-7 cells. As to the kind of experiment: Cell cycle analysis by flow cytometry. It counts as cell-based, human. The procedure: (§3) Flow Cytometry and Apoptosis Analysis: Cells were detached from tissue culture plates by trypsin treatment. Cells were collected by centrifugation at 1200 g for 5 minutes and washed once with PBS. Staining of cells with propidium iodide and analysis on a flow cytometer (FACScan, Becton Dickinson, Research Triangle Park, N.C.) was performed as described before (42). Data were analyzed with CellQuest software (Becton Dickinson, Research Triangle Park, N.C.). The percentage of cells appearing with a ploidy level smaller than a diploid content was calculated as an estimate of cells undergoing apoptosis.

The subject of the next experiment is Hs578T cells. Put plainly: Anchorage-dependent growth assay. It counts as cell-based, human. The settings on record: 100 μM, three days. The procedure: as §2
For a further experiment, the system named is ZR-75 cells. As to the kind of experiment: Anchorage-dependent growth assay. It counts as cell-based, human. The settings on record: 100 μM, three days. The procedure:
as §2

Experiment [5] has as its system MCF-7 cells. As to the kind of experiment: Thymidine incorporation assay. It counts as cell-based, human. The settings on record: treated 24 hours before thymidine. The procedure:
as §1

Experiment [6] concerns ERα protein in T47D cells. As to the kind of experiment: ERα protein level in T47D cells. It counts as cell-based, human. The settings on record: not shown. As to the method: Western Blot Analysis: Cells were washed three times in cold 1×PBS, and collected by scraping on ice. Western blot analysis was performed as we described before with the chemiluminescence method (41). Antibodies used in this study were: ERα (NeoMarkers, Ab-15), Cyclin A (Santa Cruz Biotech, H-432), Cyclin B1 (Santa Cruz Biotech, H-433), Cyclin E (Upstate Biotech, HE-12), p27 (Santa Cruz Biotech, F-8). ERα antibody was used at 1:100 dilutions. Cyclin A, cyclin B1 and p27 antibodies were used at 1:500 dilutions. Cyclin E antibody was used at 1:1000 dilutions.

For experiment [7], the system named is MCF-7 cells. As to the kind of experiment: Apoptosis by propidium iodide staining and flow cytometry (sub-diploid events). It counts as cell-based, human. The following applies: 100 μM. The procedure: as §3
On the technique in general: Flow cytometry measures light scatter and fluorescence of single cells or particles in a stream.

The subject of experiment [8] is estrogen receptor α (ERα) mRNA. Put plainly: Semi-quantitative RT-PCR of ERα mRNA in MCF-7 cells. It counts as cell-based, human. The settings on record: 100 μM. As to the method: Total RNA preparation and Reverse Transcription Polymerase Chain Reaction (RT-PCR): Total RNA from MCF-7 cells was prepared with Trizol (Invitrogen, Carlsbad, Calif.) as described before (41). For reverse transcription, 2 μg of RNA were used in a […] with random primers and M-MLV reverse transcriptase (Invitrogen, Carlsbad, Calif.), following the manufacturer's protocol. To control for possible contamination from genomic DNA in subsequent PCR reactions, control reverse transcription reactions were carried out under identical conditions, only without reverse transcriptase. After reverse transcription, 5% of the product was used in each PCR reaction. For the experiments analyzing A3 adenosine receptor (A3AR) expression, 27 cycles were used in the PCR reactions. Specific primers were designed for human A3AR, which match to two separate exons, according to genomic sequences (from GenBank). Sequences for the sense and antisense A3AR primers are: 5′tccatcatgtccttgctg3′ (SEQ ID NO: 1) and 5′gcacatgacaaccaggg3′ (SEQ ID NO.: 2). In the experiments analyzing estrogen receptor a (ERα) mRNA, semi-quantitative PCR reactions were carried out with 23 cycles for ERα primers and 19 cycles for GAPDH primers (used as a control). The cycle numbers were tested in previous experiments not to produce saturation effects. […]

Regarding `CNC(=O)[C@H]1O[C@@H](n2cnc3c(NCc4cccc(I)c4)ncnc32)[C@H](O)[C@@H]1O` [IB-MECA, N^6-(3-iodobenzyl)adenosine-5′-N-methyluronamide], in [1], the “Thymidine incorporation reduced to” value is given as 68%. The “Drop of ERE promoter activity” value in [2] is “more than 5 fold”. In addition, the “Cell counts after treatment compared to day 0, in words” value in the experiment on MCF-7 cells [3] (100 μM, three days, trypan blue negative cells) is reported as “decreased only mildly; also recorded: did not show much change in the number of viable cells”; in the experiment on Hs578T cells, “affected more severely”; with ZR-75 cells it was “decreased only mildly”. Moreover, in the experiment on MCF-7 cells [3] (2 days of treatment, compounds at 100 μM, except adenosine (500 μM) and inosine (1 mM), normalized to vehicle control (set to 1), negative = decrease vs count before treatment, average ± SD, three experiments), the “Cell Growth” value was −0.19 ± 0.06. Further, the “Akt phosphorylation (at Ser 473)” value in the experiment with Akt (Ser 473) is “induced Akt phosphorylation”. Also, the “Percentage of cells in G2/M (tetraploid DNA content)” value in the experiment with MCF-7 cells [4] (100 μM for 2 days, vehicle 24.6%) is 23.4% and 23%. The “Percentage of cells in S phase” value in the experiment on MCF-7 cells [4] (100 μM for 2 days, vehicle 25.2%) was 12.3% and 12%. Moreover, the “Percentage of cells in G1 phase (diploid DNA content)” value in the experiment on MCF-7 cells [4] (100 μM for 2 days, vehicle 50.2%) is 64.2% and 64%. Further, the “Percentage change of diploid (G0 or G1 phase) population compared to vehicle-treated cells” value in the experiment on MCF-7 cells [4] (100 μM, except adenosine (500 μM) and inosine (1 mM), first number in parentheses) turned out to be 28%. The “Percentage change of S phase population compared to vehicle-treated cells” value in the experiment on MCF-7 cells [4] (100 μM, except adenosine (500 μM) and inosine (1 mM), second number in parentheses) is on record as −51%. In the experiment with MCF-7 cells [4] (100 μM, except adenosine (500 μM) and inosine (1 mM), third number in parentheses), the “Percentage change of tetraploid (G2 or M phase) population compared to vehicle-treated cells” value is given as −5%. The “Thymidine incorporation decreased to” value in the experiment with MCF-7 cells [5] came out at 28%. The “ERα protein levels, in words” value in experiment [6] was “Reduction of ERα protein levels”. Moreover, in the experiment on MCF-7 cells [7] (two days), the “Apoptosis, in words” value was “non significant change”. The molecule further yielded an Apoptosis with MCF-7 cells [7] (2 days of treatment, except adenosine (500 μM) and inosine (1 mM), number of apoptotic cells compared to vehicle control (set to 1), average ± SD) of 1.12 ± 0.02. In addition, the “Time of first sign of decrease of ERα mRNA” value in experiment [8] came to 4 h. Besides, the “ERα mRNA level, in words” value in experiment [8] (4 to 24 hours, compared to GAPDH) is given as “strongly downregulated; also recorded: dramatic decrease”.
